Results taken from US11459296B2, “Antibacterial compounds” (INFEX Therapeutics Limited, priority 2018, dated 2022).
Values after ≈ are worked out from the molar mass of the structure shown. Structures can show the parent of a compound that is named as a salt.

Target: NDM-1 (Klebsiella pneumoniae, UniProt C7C422)
Sequence (C7C422 whole entry, looked up, species assumed): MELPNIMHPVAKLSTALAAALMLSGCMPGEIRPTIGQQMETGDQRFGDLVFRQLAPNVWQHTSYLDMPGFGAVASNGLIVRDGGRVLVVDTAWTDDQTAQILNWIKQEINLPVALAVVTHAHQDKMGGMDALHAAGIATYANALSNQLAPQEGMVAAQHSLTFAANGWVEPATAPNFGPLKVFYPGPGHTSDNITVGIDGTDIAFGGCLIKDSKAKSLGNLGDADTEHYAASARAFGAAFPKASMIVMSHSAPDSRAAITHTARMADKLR
Assay: metallo-β-lactamase inhibition assay (nitrocefin)
Type: biochemical
Conditions: 1.5 nM NDM-1, 100 μM nitrocefin, 37° C., pH 7.5
Protocol: Compounds of the invention were tested in a metallo-β-lactamase inhibition assay to investigate mechanism of action of the compounds. Results are reported as the concentration of test article required to inhibit enzyme activity by 50% (IC50).
Inhibition of metallo-β-lactamase enzyme function was performed at 37° C. in buffer at pH 7.5 (50 mM HEPES, 150 mM NaCl, 0.1 mM ZnSO4, 20 μg/mL PEG4000), containing 1.5 nM NDM-1, 100 μM nitrocefin, and a range of concentrations of compound. Absorbance at 490 nm was measured using a BMG LABTECH FLUOstar Omega microplate reader every minute for 30 minutes. IC50S were determined from the average increase in OD per minute versus the Log 10 concentration of compound using GraphPad Prism.
In the case of `Nc1ccc(-c2ccn(S(N)(=O)=O)c2C(=O)O)cn1` [Example 1, 3-(6-Aminopyridin-3-yl)-1-sulfamoyl-1H-pyrrole-2-carboxylic acid], the IC50 is reported as 826 nM. `Cc1ccc(-c2ccn(S(N)(=O)=O)c2C(=O)O)cc1` [Example 2, 3-(p-tolyl)-1-sulfamoyl-1H-pyrrole-2-carboxylic acid, sodium salt] showed an IC50 of 479 nM. For `CS(=O)(=O)c1ccc(-c2ccn(S(N)(=O)=O)c2C(=O)O)cc1` [Example 5, 3-(4-Methanesulfonylphenyl)-1-sulfamoyl-1H-pyrrole-2-carboxylic acid, sodium salt], the IC50 was 444 nM. Compound `Cn1cc(-c2ccn(S(N)(=O)=O)c2C(=O)O)cn1` [Example 6, 3-(1-Methyl-1H-pyrazol-4-yl)-1-sulfamoyl-1H-pyrrole-2-carboxylic acid, sodium salt] has an IC50 of 2860 nM. For `NS(=O)(=O)n1ccc(-c2cccnc2)c1C(=O)O` [Example 8, 3-(Pyridin-3-yl)-1-sulfamoyl-1H-pyrrole-2-carboxylic acid, sodium salt], the IC50 was 448 nM. Compound `NS(=O)(=O)n1ccc(-c2ccncc2)c1C(=O)O` [Example 9, 3-(Pyridin-4-yl)-1-sulfamoyl-1H-pyrrole-2-carboxylic acid, sodium salt] has an IC50 of 1350 nM. In the case of `NS(=O)(=O)n1ccc(-c2cccc3ncccc23)c1C(=O)O` [Example 11, 3-(5-Quinolyl)-1-sulfamoyl-pyrrole-2-carboxylic acid, sodium salt], the IC50 is reported as 4120 nM. In the case of `CC(=O)Nc1ccc(-c2ccn(S(N)(=O)=O)c2C(=O)O)cn1` [Example 24, 3-(6-Acetamido-3-pyridyl)-1-sulfamoyl-pyrrole-2-carboxylic acid], the IC50 is reported as 608 nM. `Nc1ncc(-c2ccn(S(N)(=O)=O)c2C(=O)O)cn1` [Example 25, 3-(2-Aminopyrimidin-5-yl)-1-sulfamoyl-pyrrole-2-carboxylic acid, sodium salt] gave an IC50 of 1360 nM. Compound `NC(=O)c1ccc(-c2ccn(S(N)(=O)=O)c2C(=O)O)cc1` [Example 26, 3-(4-Carbamoylphenyl)-1-sulfamoyl-pyrrole-2-carboxylic acid] has an IC50 of 512 nM. Work on `NS(=O)(=O)n1ccc(-c2cccc(C3CCNCC3)c2)c1C(=O)O` [Example 40, 3-[3-(4-Piperidyl)phenyl]-1-sulfamoyl-pyrrole-2-carboxylic acid hydrochloride] yielded an IC50 of 264 nM. Compound `Nc1nc2ccc(-c3ccn(S(N)(=O)=O)c3C(=O)O)cn2n1` [Example 47, 3-(2-Amino-[1,2,4]triazolo[1,5-a]pyridin-6-yl)-1-sulfamoyl-pyrrole-2-carboxylic acid hydrochloride] has an IC50 of 656 nM. In the case of `NCCCNC(=O)c1ccc(-c2ccn(S(N)(=O)=O)c2C(=O)O)cc1` [Example 51, 3-[4-(3-Aminopropylcarbamoyl)phenyl]-1-sulfamoyl-pyrrole-2-carboxylic acid hydrochloride], the IC50 is reported as 263 nM. Work on `Nc1nc2c(-c3ccn(S(N)(=O)=O)c3C(=O)O)cccc2s1` [Example 53, 3-(2-Amino-1,3-benzothiazol-4-yl)-1-sulfamoyl-pyrrole-2-carboxylic acid hydrochloride] yielded an IC50 of 314 nM. `NCCC(=O)N1CCC(c2ccn(S(N)(=O)=O)c2C(=O)O)CC1` [Example 63, 3-[1-(3-Aminopropanoyl)-4-piperidyl]-1-sulfamoyl-pyrrole-2-carboxylic acid] showed an IC50 of 834 nM.

Test system: not listed separately
Assay: Cytotoxicity Assay (CellTiter-Glo)
Type: cell-based
Conditions: human, Hep G2 cells (ATCC HB-8065); 24 h exposure, cell viability; read-out: HepG2 CC50
Protocol: Cytotoxicity was evaluated in human Hep G2 cells (ATCC HB-8065) seeded at a density of 2×10^5 cells per well and incubated for 24 h at 37° C., 5% CO2. Cells were exposed to a doubling dilution series of test article. After 24 h exposure, the viability of the cells was determined using CellTiter-Glo® (Promega, Wis., USA) according to the manufacturer's instructions. Results are reported as the concentration of test article required to reduce cell viability by 50% (CC50).
Compound `Nc1ccc(-c2ccn(S(N)(=O)=O)c2C(=O)O)cn1` [Example 1, 3-(6-Aminopyridin-3-yl)-1-sulfamoyl-1H-pyrrole-2-carboxylic acid] has a CC50 at 24 h of over 256 µg/mL. `Cc1ccc(-c2ccn(S(N)(=O)=O)c2C(=O)O)cc1` [Example 2, 3-(p-tolyl)-1-sulfamoyl-1H-pyrrole-2-carboxylic acid, sodium salt] gave a CC50 at 24 h of over 128 µg/mL. With `NS(=O)(=O)n1ccc(-c2ccccc2)c1C(=O)O` [Example 3, 3-Phenyl-1-sulfamoyl-1H-pyrrole-2-carboxylic acid, sodium salt] the CC50 at 24 h was over 128 µg/mL. For `CN(C)S(=O)(=O)c1ccc(-c2ccn(S(N)(=O)=O)c2C(=O)O)cc1` [Example 4, 3-[4-(Dimethylsulfamoyl)phenyl]-1-sulfamoyl-1H-pyrrole-2-carboxylic acid, sodium salt], the CC50 at 24 h was over 128 µg/mL. Work on `CS(=O)(=O)c1ccc(-c2ccn(S(N)(=O)=O)c2C(=O)O)cc1` [Example 5, 3-(4-Methanesulfonylphenyl)-1-sulfamoyl-1H-pyrrole-2-carboxylic acid, sodium salt] yielded a CC50 at 24 h of over 256 µg/mL. `Cn1cc(-c2ccn(S(N)(=O)=O)c2C(=O)O)cn1` [Example 6, 3-(1-Methyl-1H-pyrazol-4-yl)-1-sulfamoyl-1H-pyrrole-2-carboxylic acid, sodium salt] gave a CC50 at 24 h of over 256 µg/mL. `Cc1nn(C)c(C)c1-c1ccn(S(N)(=O)=O)c1C(=O)O` [Example 7, 1-Sulfamoyl-3-(1,3,5-trimethyl-1H-pyrazol-4-yl)-1H-pyrrole-2-carboxylic acid, sodium salt] showed a CC50 at 24 h of over 256 µg/mL. For `NS(=O)(=O)n1ccc(-c2cccnc2)c1C(=O)O` [Example 8, 3-(Pyridin-3-yl)-1-sulfamoyl-1H-pyrrole-2-carboxylic acid, sodium salt], the CC50 at 24 h was over 256 µg/mL. Compound `NS(=O)(=O)n1ccc(-c2ccncc2)c1C(=O)O` [Example 9, 3-(Pyridin-4-yl)-1-sulfamoyl-1H-pyrrole-2-carboxylic acid, sodium salt] has a CC50 at 24 h of over 256 µg/mL. In the case of `NS(=O)(=O)n1ccc(C2CCCCC2)c1C(=O)O` [Example 10, 3-Cyclohexyl-1-sulfamoyl-pyrrole-2-carboxylic acid, sodium salt], the CC50 at 24 h is reported as 145 µg/mL. With `NS(=O)(=O)n1ccc(-c2cccc3ncccc23)c1C(=O)O` [Example 11, 3-(5-Quinolyl)-1-sulfamoyl-pyrrole-2-carboxylic acid, sodium salt] the CC50 at 24 h was over 256 µg/mL. Work on `NS(=O)(=O)n1ccc(-c2ccc(-c3ccncc3)cc2)c1C(=O)O` [Example 13, 3-[4-(Pyridin-4-yl)phenyl]-1-sulfamoyl-1H-pyrrole-2-carboxylic acid] yielded a CC50 at 24 h of over 256 µg/mL. In the case of `NS(=O)(=O)n1ccc(-c2ccccc2F)c1C(=O)O` [Example 14, 3-(2-Fluorophenyl)-1-sulfamoyl-pyrrole-2-carboxylic acid], the CC50 at 24 h is reported as over 256 µg/mL. `N#Cc1ccc(-c2ccn(S(N)(=O)=O)c2C(=O)O)cc1` [Example 15, 3-(4-Cyanophenyl)-1-sulfamoyl-1H-pyrrole-2-carboxylic acid] showed a CC50 at 24 h of over 256 µg/mL. In the case of `NS(=O)(=O)n1ccc(-c2ccc(N3CCOCC3)nc2)c1C(=O)O` [Example 16, 3-[6-(Morpholin-4-yl)pyridin-3-yl]-1-sulfamoyl-1H-pyrrole-2-carboxylic acid], the CC50 at 24 h is reported as over 64 µg/mL. `CC(C)(C)OC(=O)N1CCN(S(=O)(=O)c2ccc(-c3ccn(S(N)(=O)=O)c3C(=O)O)cc2)CC1` [Example 17, 3-[4-(4-tert-Butoxycarbonylpiperazin-1-yl)sulfonylphenyl]-1-sulfamoyl-pyrrole-2-carboxylic acid, sodium salt] showed a CC50 at 24 h of 252 µg/mL. `Cc1ccccc1-c1ccn(S(N)(=O)=O)c1C(=O)O` [Example 20, 3-(o-Tolyl)-1-sulfamoyl-pyrrole-2-carboxylic acid] showed a CC50 at 24 h of over 256 µg/mL. `NS(=O)(=O)n1ccc(-c2ccc(S(=O)(=O)N3CCNCC3)cc2)c1C(=O)O` [Example 35, 3-[4-(Piperazine-1-sulfonyl)phenyl]-1-sulfamoyl-1H-pyrrole-2-carboxylic acid] showed a CC50 at 24 h of over 256 µg/mL. Work on `NS(=O)(=O)n1ccc(-c2ccc(OC3CCNCC3)cc2)c1C(=O)O` [Example 37, 3-[4-(Piperidin-4-yloxy)phenyl]-1-sulfamoyl-1H-pyrrole-2-carboxylic acid hydrochloride] yielded a CC50 at 24 h of over 256 µg/mL. Compound `NS(=O)(=O)n1ccc(C2=CCNCC2)c1C(=O)O` [Example 38, 1-Sulfamoyl-3-(1,2,3,6-tetrahydropyridin-4-yl)-1H-pyrrole-2-carboxylic acid hydrochloride] has a CC50 at 24 h of over 256 µg/mL. `CC(=O)N1CCC(c2ccc(-c3ccn(S(N)(=O)=O)c3C(=O)O)cc2)CC1` [Example 48, 3-[4-(1-Acetylpiperidin-4-yl)phenyl]-1-sulfamoyl-1H-pyrrole-2-carboxylic acid] showed a CC50 at 24 h of 158 µg/mL (≈ 405 µM). Work on `CN(C)S(=O)(=O)N1CCC(c2ccc(-c3ccn(S(N)(=O)=O)c3C(=O)O)cc2)CC1` [Example 49, 3-[4-[1-(Dimethylsulfamoyl)piperidin-4-yl]phenyl]-1-sulfamoyl-1H-pyrrole-2-carboxylic acid] yielded a CC50 at 24 h of 66.4 µg/mL (≈ 145 µM). With `NS(=O)(=O)n1ccc(Cc2ccccc2)c1C(=O)O` [Example 54, 3-Benzyl-1-sulfamoyl-1H-pyrrole-2-carboxylic acid] the CC50 at 24 h was 248 µg/mL (≈ 884 µM). Work on `NS(=O)(=O)n1ccc(C2CC2)c1C(=O)O` [Example 55, 3-Cyclopropyl-1-sulfamoyl-1H-pyrrole-2-carboxylic acid] yielded a CC50 at 24 h of over 256 µg/mL. Compound `NS(=O)(=O)n1ccc(C2CCNCC2)c1C(=O)O` [Example 57, 3-(Piperidin-4-yl)-1-sulfamoyl-1H-pyrrole-2-carboxylic acid hydrochloride] has a CC50 at 24 h of over 256 µg/mL. In the case of `CS(=O)(=O)N1CCC(c2ccn(S(N)(=O)=O)c2C(=O)O)CC1` [Example 59, 3-(1-Methylsulfonyl-4-piperidyl)-1-sulfamoyl-pyrrole-2-carboxylic acid], the CC50 at 24 h is reported as over 256 µg/mL. Work on `CCc1cn(S(N)(=O)=O)c(C(=O)O)c1-c1ccccc1` [Example 74, 4-Ethyl-3-phenyl-1-sulfamoyl-pyrrole-2-carboxylic acid] yielded a CC50 at 24 h of 237 µg/mL (≈ 805 µM). `Cc1cn(S(N)(=O)=O)c(C(=O)O)c1-c1ccccc1` [Example 75, 4-Methyl-3-phenyl-1-sulfamoyl-1H-pyrrole-2-carboxylic acid] showed a CC50 at 24 h of over 256 µg/mL. Compound `NS(=O)(=O)c1ccn(-c2ccc(F)cc2)c1C(=O)O` [Example 80, 1-(4-Fluorophenyl)-3-sulfamoyl-pyrrole-2-carboxylic acid] has a CC50 at 24 h of over 256 µg/mL. `Cc1ccc(-n2ccc(S(N)(=O)=O)c2C(=O)O)cc1` [Example 81, 1-(p-Tolyl)-3-sulfamoyl-pyrrole-2-carboxylic acid] gave a CC50 at 24 h of over 256 µg/mL. For `NS(=O)(=O)c1ccn(-c2ccc(C3CCNCC3)cc2)c1C(=O)O` [Example 82, 1-[4-(Piperidin-4-yl)phenyl]-3-sulfamoyl-1H-pyrrole-2-carboxylic acid, sodium salt], the CC50 at 24 h was over 256 µg/mL. `COc1ccc(-n2ccc(S(N)(=O)=O)c2C(=O)O)cc1` [Example 83, 1-(4-Methoxyphenyl)-3-sulfamoyl-pyrrole-2-carboxylic acid] showed a CC50 at 24 h of over 256 µg/mL. Compound `NS(=O)(=O)c1ccn(Cc2ccccc2)c1C(=O)O` [Example 84, 1-Benzyl-3-sulfamoyl-pyrrole-2-carboxylic acid] has a CC50 at 24 h of over 256 µg/mL.
